Test results: US10556883B2, “Benzenesulfonamide compounds, method for synthesizing same, and use thereof in medicine and cosmetics” (GALDERMA RESEARCH & DEVELOPMENT, priority 2016, dated 2020)

Tested on: TNFα secretion from LPS stimulated frozen Peripheral Blood Mononuclear Cells (PBMC)
Assay: inhibition of TNFα secretion from LPS stimulated human PBMC (hPBMC assay)
Assay type: cell-based
Conditions: LPS 1 μg/mL, overnight incubation, TNFα by HTRF
Method: Activity of the compounds was investigated using human peripheral blood mononuclear cells (hPBMC). This assay was designed to measure the inhibition of the TNFα secretion from LPS stimulated frozen Peripheral Blood Mononuclear Cells (PBMC) isolated from human blood. TNFα levels were measured using HTRF® Human TNFα kit (Cisbio #62TNFPEC) which is a rapid and quantitative sandwich immunoassay based on TR-FRET technology.
Frozen PBMC were quickly thawed, resuspended in culture medium (RPMI 10% inactivated FBS) and viable cells were seeded in 96-well plates (50,000 cells/well). […] After overnight incubation at 37° C., 10 μL of cell supernatant were mixed with 5 μL of each tagged anti-TNFα specific antibody as recommended by the supplier. After 2 hours of incubation at room temperature, the HTRF® signals were measured using a microplate reader (wavelengths: excitation=337 nm, first emission=620 nm, second emission=665 nm).

Compound	IC50 [nM]
CC(=O)N1CC(CC(=O)NO)(NS(=O)(=O)c2ccc(OCc3cc(C)nc4ccccc34)cc2)C1 [Example 1, 2-(1-acetyl-3-((4-((2-methylquinolin-4-yl)methoxy)phenyl)sulfonamido)azetidin-3-yl)-N-hydroxyacetamide]	< 50
Cc1cc(COc2ccc(S(=O)(=O)NC3(CC(=O)NO)CN(C(=O)OC(C)(C)C)C3)cc2)c2ccccc2n1 [Example 2, Tert-butyl 3-(2-(hydroxyamino)-2-oxoethyl)-3-((4-((2-methylquinolin-4-yl)methoxy)phenyl)sulfonamido)azetidine-1-carboxylate]	< 50
CC(=O)N1CC(CC(=O)NO)(N(C)S(=O)(=O)c2ccc(OCc3cc(C)nc4ccccc34)cc2)C1 [Example 3, 2-(1-acetyl-3-((N-methyl-4-((2-methylquinolin-4-yl)methoxy)phenyl)sulfonamido)azetidin-3-yl)-N-hydroxyacetamide]	500 to 1000
Cc1cc(COc2ccc(S(=O)(=O)NC3(CC(=O)NO)CN(C(=O)CC(C)C)C3)cc2)c2ccccc2n1 [Example 4a, N-hydroxy-2-(1-(3-methylbutanoyl)-3-((4-((2-methylquinolin-4-yl)methoxy)phenyl)sulfonamido)azetidin-3-yl)acetamide]	< 50
Cc1cc(COc2ccc(S(=O)(=O)NC3(CC(=O)NO)CN(C(=O)C(C)C)C3)cc2)c2ccccc2n1 [Example 4b, N-hydroxy-2-(1-isobutyryl-3-((4-((2-methylquinolin-4-yl)methoxy)phenyl)sulfonamido)azetidin-3-yl)acetamide]	< 50
Cc1cc(COc2ccc(S(=O)(=O)NC3(CC(=O)NO)CN(C(=O)C4CC4)C3)cc2)c2ccccc2n1 [Example 4c, 2-(1-(cyclopropanecarbonyl)-3-((4-((2-methylquinolin-4-yl)methoxy)phenyl)sulfonamido)azetidin-3-yl)-N-hydroxyacetamide]	< 50
Cc1cc(COc2ccc(S(=O)(=O)NC3(CC(=O)NO)CN(C(=O)C(C)(C)C)C3)cc2)c2ccccc2n1 [Example 4d, N-hydroxy-2-(3-((4-((2-methylquinolin-4-yl)methoxy)phenyl)sulfonamido)-1-pivaloylazetidin-3-yl)acetamide]	< 50
CCCC(=O)N1CC(CC(=O)NO)(NS(=O)(=O)c2ccc(OCc3cc(C)nc4ccccc34)cc2)C1 [Example 4e, 2-(1-butyryl-3-((4-((2-methylquinolin-4-yl)methoxy)phenyl)sulfonamido)azetidin-3-yl)-N-hydroxyacetamide]	< 50
COCC(=O)N1CC(CC(=O)NO)(NS(=O)(=O)c2ccc(OCc3cc(C)nc4ccccc34)cc2)C1 [Example 4f, N-hydroxy-2-(1-(2-methoxyacetyl)-3-((4-((2-methylquinolin-4-yl)methoxy)phenyl)sulfonamido)azetidin-3-yl)acetamide]	< 50
Cc1cc(COc2ccc(S(=O)(=O)NC3(CC(=O)NO)CN(C(=O)C4CCOCC4)C3)cc2)c2ccccc2n1 [Example 4g, N-hydroxy-2-(3-((4-((2-methylquinolin-4-yl)methoxy)phenyl)sulfonamido)-1-(tetrahydro-2H-pyran-4-carbonyl)azetidin-3-yl)acetamide]	< 50
Cc1cc(COc2ccc(S(=O)(=O)NC3(CC(=O)NO)CN(C(=O)C4CCCC4)C3)cc2)c2ccccc2n1 [Example 4h, 2-(1-(cyclopentanecarbonyl)-3-((4-((2-methylquinolin-4-yl)methoxy)phenyl)sulfonamido)azetidin-3-yl)-N-hydroxyacetamide]	< 50
CCC(CC)C(=O)N1CC(CC(=O)NO)(NS(=O)(=O)c2ccc(OCc3cc(C)nc4ccccc34)cc2)C1 [Example 4i, 2-(1-(2-ethylbutanoyl)-3-((4-((2-methylquinolin-4-yl)methoxy)phenyl)sulfonamido)azetidin-3-yl)-N-hydroxyacetamide]	< 50
Cc1cc(COc2ccc(S(=O)(=O)NC3(CC(=O)NO)CN(C(=O)C4CCCCC4)C3)cc2)c2ccccc2n1 [Example 4j, 2-(1-(cyclohexanecarbonyl)-3-((4-((2-methylquinolin-4-yl)methoxy)phenyl)sulfonamido)azetidin-3-yl)-N-hydroxyacetamide]	< 50
CCOC(=O)N1CC(CC(=O)NO)(NS(=O)(=O)c2ccc(OCc3cc(C)nc4ccccc34)cc2)C1 [Example 5a, Ethyl 3-(2-(hydroxyamino)-2-oxoethyl)-3-((4-((2-methylquinolin-4-yl)methoxy)phenyl)sulfonamido)azetidine-1-carboxylate]	< 50
COC(=O)N1CC(CC(=O)NO)(NS(=O)(=O)c2ccc(OCc3cc(C)nc4ccccc34)cc2)C1 [Example 5b, methyl 3-(2-(hydroxyamino)-2-oxoethyl)-3-((4-((2-methylquinolin-4-yl)methoxy)phenyl)sulfonamido)azetidine-1-carboxylate]	< 50
C=CCOC(=O)N1CC(CC(=O)NO)(NS(=O)(=O)c2ccc(OCc3cc(C)nc4ccccc34)cc2)C1 [Example 5c, allyl 3-(2-(hydroxyamino)-2-oxoethyl)-3-((4-((2-methylquinolin-4-yl)methoxy)phenyl)sulfonamido)azetidine-1-carboxylate]	< 50
Cc1cc(COc2ccc(S(=O)(=O)NC3(CC(=O)NO)CN(C(=O)OC(C)C)C3)cc2)c2ccccc2n1 [Example 5d, isopropyl 3-(2-(hydroxyamino)-2-oxoethyl)-3-((4-((2-methylquinolin-4-yl)methoxy)phenyl)sulfonamido)azetidine-1-carboxylate]	< 50
CC(=O)N1CC(CC(=O)NO)(NS(=O)(=O)c2ccc(OCc3cc(C)nc4c(F)cccc34)cc2)C1 [Example 6, 2-(1-acetyl-3-((4-((8-fluoro-2-methylquinolin-4-yl)methoxy)phenyl)sulfonamido)azetidin-3-yl)-N-hydroxyacetamide]	50 to 100
Cc1cc(COc2ccc(S(=O)(=O)NC3(C(=O)NO)CN(C(=O)C(C)(C)C)C3)cc2)c2ccccc2n1 [Example 7a, N-hydroxy-3-((4-((2-methylquinolin-4-yl)methoxy)phenyl)sulfonamido)-1-pivaloylazetidine-3-carboxamide]	50 to 100
Cc1cc(COc2ccc(S(=O)(=O)NC3(C(=O)NO)CN(C(=O)CC(C)C)C3)cc2)c2ccccc2n1 [Example 7c, N-hydroxy-1-(3-methylbutanoyl)-3-((4-((2-methylquinolin-4-yl)methoxy)phenyl)sulfonamido)azetidine-3-carboxamide]	< 50
Cc1cc(COc2ccc(S(=O)(=O)NC3(C(=O)NO)CN(C(=O)C4CCOCC4)C3)cc2)c2ccccc2n1 [Example 7d, N-hydroxy-3-((4-((2-methylquinolin-4-yl)methoxy)phenyl)sulfonamido)-1-(tetrahydro-2H-pyran-4-carbonyl)azetidine-3-carboxamide]	< 50
Cc1cc(COc2ccc(S(=O)(=O)NC3(C(=O)NO)CN(C(=O)C4CCC4)C3)cc2)c2ccccc2n1 [Example 7e, 1-(cyclobutanecarbonyl)-N-hydroxy-3-((4-((2-methylquinolin-4-yl)methoxy)phenyl)sulfonamido)azetidine-3-carboxamide]	< 50
CCC(CC)C(=O)N1CC(NS(=O)(=O)c2ccc(OCc3cc(C)nc4ccccc34)cc2)(C(=O)NO)C1 [Example 7f, 1-(2-ethylbutanoyl)-N-hydroxy-3-((4-((2-methylquinolin-4-yl)methoxy)phenyl)sulfonamido)azetidine-3-carboxamide]	50 to 100
CCC(=O)N1CC(NS(=O)(=O)c2ccc(OCc3cc(C)nc4ccccc34)cc2)(C(=O)NO)C1 [Example 7g, N-hydroxy-3-((4-((2-methylquinolin-4-yl)methoxy)phenyl)sulfonamido)-1-propionylazetidine-3-carboxamide]	< 50
CCCC(=O)N1CC(NS(=O)(=O)c2ccc(OCc3cc(C)nc4ccccc34)cc2)(C(=O)NO)C1 [Example 7h, 1-butyryl-N-hydroxy-3-((4-((2-methylquinolin-4-yl)methoxy)phenyl)sulfonamido)azetidine-3-carboxamide]	< 50
CCCCC(=O)N1CC(NS(=O)(=O)c2ccc(OCc3cc(C)nc4ccccc34)cc2)(C(=O)NO)C1 [Example 7i, N-hydroxy-3-((4-((2-methylquinolin-4-yl)methoxy)phenyl)sulfonamido)-1-pentanoylazetidine-3-carboxamide]	< 50
CC(=O)N1CC(NS(=O)(=O)c2ccc(OCc3cc(C)nc4ccccc34)cc2)(C(=O)NO)C1 [Example 8, 1-acetyl-N-hydroxy-3-((4-((2-methylquinolin-4-yl)methoxy)phenyl)sulfonamido) azetidine-3-carboxamide]	< 50
Cc1cc(COc2ccc(S(=O)(=O)NC3(CC(=O)NO)CN(C(=O)N4CCCCC4)C3)cc2)c2ccccc2n1 [Example 9, N-hydroxy-2-(3-((4-((2-methylquinolin-4-yl)methoxy)phenyl)sulfonamido)-1-(piperidine-1-carbonyl)azetidin-3-yl)acetamide]	< 50
Cc1cc(COc2ccc(S(=O)(=O)NC3(CC(=O)NO)CN(C(=O)CN4CCCCC4)C3)cc2)c2ccccc2n1 [Example 12, N-hydroxy-2-(3-((4-((2-methylquinolin-4-yl)methoxy)phenyl)sulfonamido)-1-(2-(piperidin-1-yl)acetyl)azetidin-3-yl)acetamide]	< 50
Cc1cc(COc2ccc(S(=O)(=O)NC3(CC(=O)NO)CN(C(=O)CC4CCC4)C3)cc2)c2ccccc2n1 [Example 13, 2-(1-(2-cyclobutylacetyl)-3-((4-((2-methylquinolin-4-yl)methoxy)phenyl)sulfonamido)azetidin-3-yl)-N-hydroxyacetamide]	< 50
